Laboratory results from patent US11000033B2, “Ketone or oxime compound, and herbicide” (NISSAN CHEMICAL CORPORATION, priority 2014, dated 2021).

How the values were obtained:
Chenopodium album = test: Test Example 4: herbicidal effect by soil treatment (symbol O); type: in vivo
Method in brief: (§1)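 Seeds were sown in sterilized diluvial soil, covered with about 1.5 cm of soil, and the soil surface was sprayed with a water-diluted emulsion of the compound at a predetermined rate. Plants grew in a greenhouse at 25° C. to 30° C.; effects were scored visually 3 weeks after application.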

Galium spurium = test: Test Example 4: herbicidal effect by soil treatment (symbol Q); type: in vivo
Method in brief: as §1

[1] = application herbicide amount 320 g/ha

melting point [°C] | Compound | O: Chenopodium album, herbicidal effect grade (Chenopodium album; [1]) | Q: Galium spurium, herbicidal effect grade (Galium spurium; [1]) | O: Chenopodium album, herbicidal effect grade (Chenopodium album; 320 g/ha) | Q: Galium spurium, herbicidal effect grade (Galium spurium; 320 g/ha)
184 to 188 | CCc1cc(Br)cc(C)c1C1=C(O)CC(C(C(=O)OC)C(C)=NOC)C1=O (centres unmarked) [6-002] | – | – | – | –
122 to 125 | CCc1cc(C)cc(C)c1C1=C(O)CC(CC(C)=NOC)C1=O (centres unmarked) [6-007] | 0 (Herbicidal ratio of 5% or lower (almost no effect)) | 0 (Herbicidal ratio of 5% or lower (almost no effect)) | – | –
167 to 169 | CON=C(C)CC1CC(O)=C(c2c(C)cc(-c3ccccc3)cc2C)C1=O (centres unmarked) [6-015] | 3 (Herbicidal ratio of 40% or higher and lower than 70%) | – | – | –
– | CON=C(C)CC1CC(O)=C(c2c(C)cc(-c3ccc(C(F)(F)F)cc3)cc2C)C1=O (mixture of isomers) [6-016] | 0 (Herbicidal ratio of 5% or lower (almost no effect)) | 0 (Herbicidal ratio of 5% or lower (almost no effect)) | – | –
– | Cc1cc(C)c(C2=C(O)CC(CC(=O)C3CCCC3)C2=O)c(C)c1 (centres unmarked) [2-028] | 0 (Herbicidal ratio of 5% or lower (almost no effect)) | 0 (Herbicidal ratio of 5% or lower (almost no effect)) | – | –
165 to 172 | CON=C(C)CC1CC(O)=C(c2c(C)cc(OCC(F)(F)F)cc2C)C1=O (centres unmarked) [6-049] | 4 (Herbicidal ratio of 70% or higher and lower than 90%) | 3 (Herbicidal ratio of 40% or higher and lower than 70%) | – | –
– | CON=CC1CC(O)=C(c2c(C)cc(C)cc2C)C1=O (mixture of isomers) [3-001] | 0 (Herbicidal ratio of 5% or lower (almost no effect)) | 0 (Herbicidal ratio of 5% or lower (almost no effect)) | – | –
– | CCOC(=O)C(C(=O)c1ccccn1)C1CC(O)=C(c2c(C)cc(C)cc2C)C1=O (centres unmarked) [2-013] | 0 (Herbicidal ratio of 5% or lower (almost no effect)) | 0 (Herbicidal ratio of 5% or lower (almost no effect)) | – | –
164 to 166 | CON=C(C)CC1CC(O)=C(c2c(C)cc(Br)cc2C)C1=O (centres unmarked) [6-003] | 0 (Herbicidal ratio of 5% or lower (almost no effect)) | – | – | –
– | CCc1cc(-n2cc(Cl)cn2)cc(C)c1C1=C(O)CC(CC(C)=NOC)C1=O (mixture of isomers) [6-005] | 0 (Herbicidal ratio of 5% or lower (almost no effect)) | 0 (Herbicidal ratio of 5% or lower (almost no effect)) | – | –
– | Cc1cc(C)c(C2=C(O)CC(CC(=O)C3CCCCC3)C2=O)c(C)c1 (centres unmarked) [2-030] | 0 (Herbicidal ratio of 5% or lower (almost no effect)) | 0 (Herbicidal ratio of 5% or lower (almost no effect)) | – | –
– | CON=C(C)CC1CC(OS(=O)(=O)CC[Si](C)(C)C)=C(c2c(C)cc(C)cc2C)C1=O (centres unmarked) [1-144] | – | – | 0 (Herbicidal ratio of 5% or lower (almost no effect)) | 0 (Herbicidal ratio of 5% or lower (almost no effect))
– | COCC(=O)CC1CC(O)=C(c2c(C)cc(C)cc2C)C1=O (centres unmarked) [2-007] | 0 (Herbicidal ratio of 5% or lower (almost no effect)) | 0 (Herbicidal ratio of 5% or lower (almost no effect)) | – | –
– | CCOC(=O)C(C(=O)C(F)(F)F)C1CC(O)=C(c2c(C)cc(C)cc2C)C1=O (centres unmarked) [2-010] | 0 (Herbicidal ratio of 5% or lower (almost no effect)) | 0 (Herbicidal ratio of 5% or lower (almost no effect)) | – | –
– | CCC(C)C(=O)CC1CC(O)=C(c2c(C)cc(C)cc2C)C1=O (centres unmarked) [2-024] | 0 (Herbicidal ratio of 5% or lower (almost no effect)) | 0 (Herbicidal ratio of 5% or lower (almost no effect)) | – | –
– | CON=C(C)CC1CC(OC(=O)N(C)c2ccccc2)=C(c2c(C)cc(C)cc2C)C1=O (centres unmarked) [1-159] | – | – | 0 (Herbicidal ratio of 5% or lower (almost no effect)) | 0 (Herbicidal ratio of 5% or lower (almost no effect))
151 to 153 | CCc1cc(Br)cc(C)c1C1=C(O)CC(CC(C)=NOC)C1=O (centres unmarked) [6-001] | – | 0 (Herbicidal ratio of 5% or lower (almost no effect)) | – | –
– | CON=C(C)CC1CC(OC(=O)N2CCCCC2)=C(c2c(C)cc(C)cc2C)C1=O (centres unmarked) [1-151] | – | – | 0 (Herbicidal ratio of 5% or lower (almost no effect)) | 0 (Herbicidal ratio of 5% or lower (almost no effect))
– | CON=C(C)CC1CC(OC(=O)c2ccc(S(C)(=O)=O)c(C(=O)OC)c2Cl)=C(c2c(C)cc(C)cc2C)C1=O (centres unmarked) [1-162] | – | – | 0 (Herbicidal ratio of 5% or lower (almost no effect)) | 0 (Herbicidal ratio of 5% or lower (almost no effect))
– | CON=C(C)CC1CC(OC(=O)c2ccccc2C(F)(F)F)=C(c2c(C)cc(C)cc2C)C1=O (centres unmarked) [1-154] | – | – | 0 (Herbicidal ratio of 5% or lower (almost no effect)) | 0 (Herbicidal ratio of 5% or lower (almost no effect))
– | CCOC(=O)C(C(=O)C(C)C)C1CC(O)=C(c2c(C)cc(C)cc2C)C1=O (centres unmarked) [2-009] | 0 (Herbicidal ratio of 5% or lower (almost no effect)) | 0 (Herbicidal ratio of 5% or lower (almost no effect)) | – | –
– | C=CCOC(=O)OC1=C(c2c(C)cc(C)cc2C)C(=O)C(CC(C)=NOC)C1 (centres unmarked) [1-146] | – | – | 0 (Herbicidal ratio of 5% or lower (almost no effect)) | 0 (Herbicidal ratio of 5% or lower (almost no effect))
– | CON=C(C)CC1CC(O)=C(c2c(C)cc(-c3ccc(C)cc3)cc2C)C1=O (mixture of isomers) [6-018] | 0 (Herbicidal ratio of 5% or lower (almost no effect)) | 0 (Herbicidal ratio of 5% or lower (almost no effect)) | – | –
